Tests used:
Assay type in all cases: in vivo
[1] = tested on: Wheat plants of the "Cubus" cultivar; test: Reduction of shoot growth in winter wheat, greenhouse test
Protocol: Wheat plants of the “Cubus” cultivar were cultivated in pots of diameter 12 cm on a customary growing substrate. The plants were treated at BBCH development stage 11/12 (1-2 leaves unfolded) at a shoot length of 16 cm as a foliar application with a liquid volume of 750 I/ha. Both prohexadione-Ca (“ProCa”) and trinexapac-ethyl (“TriEt”) were used as technical grade active ingredients. To prepare an applicable spray liquor, the adjuvant LI-700 (Loveland Products, Inc., Greeley, Colo., USA) was added in a concentration of 0.1%. The shoot length of the plants was measured at different times after the treatment. The following results were obtained (data in centimeters): […]

[2] = tested on: Winter wheat of the "Bussard" cultivar; test: Reduction of shoot growth in winter wheat, field test
Protocol: Winter wheat of the “Bussard” cultivar was cultivated under field conditions. To “provoke” significant lodging, the supply of the nutrient element nitrogen was deliberately selected too high. The remaining growing conditions corresponded to customary practice. The plants were treated with the inventive active ingredient combination at the BBCH 31/32 development stage (1- to 2-node stage) as a foliar application with a liquid volume of 200 I/ha. Prohexadione-Ca (“ProCa”) (50 g/ha) was used as Regalis (BASF) and trinexapac-ethyl (“TriEt”) (75 g/ha) as Moddus (Syngenta). The shoot length of the plants was measured at various times from the treatment until they were ready for harvest. The following results were obtained (data in centimeters): […]

[3] = tested on: Winter wheat of the "Bussard" cultivar; test: Degree of stem lodging in winter wheat ready for harvest, field test; conditions: crops ready for harvest; for Degree of lodging: % lodged area x intensity (0-100) / 100
Protocol: Winter wheat of the “Bussard” cultivar was cultivated under field conditions. To “provoke” significant lodging, the supply of the nutrient element nitrogen was deliberately selected too high. The remaining growing conditions corresponded to customary practice. The plants were treated with the inventive active ingredient combination at the BBCH 31/32 development stage (1- to 2-node stage) as a foliar application with a liquid volume of 200 I/ha. Prohexadione-Ca (“ProCa”) (50 g/ha) was used as Regalis (BASF) and trinexapac-ethyl (“TriEt”) (75 g/ha) as Moddus (Syngenta). The shoot length of the plants was measured at various times from the treatment until they were ready for harvest. The following results were obtained (data in centimeters):
For crops ready for harvest from the test, the degree of stem lodging was determined. This value is the product of the percentage area in which the wheat plants are no longer upright with the intensity of lodging (0=plants are upright/100=plants lie flat on the ground) divided by 100. The values obtained here likewise lead to the conclusion of a synergistic interaction of the active ingredients involved: […]

[4] = 25 g/ha foliar, 0 days after treatment
[5] = 25 g/ha foliar, 5 days after treatment
[6] = 25 g/ha foliar, 8 days after treatment
[7] = 25 g/ha foliar, 11 days after treatment
[8] = 50 g/ha foliar, 0 days after treatment
[9] = 50 g/ha foliar, 5 days after treatment
[10] = 50 g/ha foliar, 8 days after treatment
[11] = 50 g/ha foliar, 11 days after treatment
[12] = 100 g/ha foliar, 0 days after treatment
[13] = 100 g/ha foliar, 5 days after treatment
[14] = 100 g/ha foliar, 8 days after treatment
[15] = 100 g/ha foliar, 11 days after treatment

Compound | shoot length [1, 4] [cm] | shoot length [1, 5] [cm] | shoot length [1, 6] [cm] | shoot length [1, 7] [cm] | shoot length [1, 8] [cm] | shoot length [1, 9] [cm] | shoot length [1, 10] [cm] | shoot length [1, 11] [cm] | shoot length [1, 12] [cm] | shoot length [1, 13] [cm] | shoot length [1, 14] [cm] | shoot length [1, 15] [cm] | also measured
CCOC(=O)C1CC(=O)C(=C(O)C2CC2)C(=O)C1 (stereo not drawn) [TriEt, trinexapac-ethyl] | 16 | 24.6 | 27.9 | 32.9 | 16 | 24.4 | 26.5 | 31.8 | 16 | 22.3 | 23.6 | 28.5 | shoot length ([2]; 75 g/ha (as Moddus) foliar, 0 days after treatment): 43.0 cm; shoot length ([2]; 75 g/ha (as Moddus) foliar, 7 days after treatment): 54.5 cm; shoot length ([2]; 75 g/ha (as Moddus) foliar, 21 days after treatment): 76.3 cm; shoot length ([2]; 75 g/ha (as Moddus) foliar, 30 days after treatment): 97.8 cm; shoot length ([2]; 75 g/ha (as Moddus) foliar, 37 days after treatment): 102.8 cm; shoot length ([2]; 75 g/ha (as Moddus) foliar, 49 days after treatment): 119.8 cm; shoot length ([2]; 75 g/ha (as Moddus) foliar, 63 days after treatment): 121.0 cm; Degree of lodging ([3]; 75 g/ha): 93
CCC(=O)C1=C([O-])CC(C(=O)[O-])CC1=O.[Ca+2] (stereo not drawn) [ProCa, prohexadione-Ca] | 16 | 23.0 | 26.6 | 31.1 | 16 | 23.0 | 26.3 | 29.5 | 16 | 22.5 | 24.0 | 25.8 | shoot length ([2]; 50 g/ha (as Regalis) foliar, 0 days after treatment): 43.0 cm; shoot length ([2]; 50 g/ha (as Regalis) foliar, 7 days after treatment): 50.0 cm; shoot length ([2]; 50 g/ha (as Regalis) foliar, 21 days after treatment): 69.3 cm; shoot length ([2]; 50 g/ha (as Regalis) foliar, 30 days after treatment): 89.0 cm; shoot length ([2]; 50 g/ha (as Regalis) foliar, 37 days after treatment): 99.5 cm; shoot length ([2]; 50 g/ha (as Regalis) foliar, 49 days after treatment): 119.8 cm; shoot length ([2]; 50 g/ha (as Regalis) foliar, 63 days after treatment): 120.0 cm; Improvement over control [%] (degree of lodging) ([3]; 50 g/ha): 11%; Improvement over control absolute (degree of lodging) ([3]; 50 g/ha): 10; Degree of lodging ([3]; 50 g/ha): 81
